Results as given in article PMC6321136, “Combined In Vitro Studies and in Silico Target Fishing for the Evaluation of the Biological Activities of Diphylleia cymosa and Podophyllum hexandrum” (Molecules, 2018).
Like-named read-outs stand apart in the source and are kept apart here.

Experiments:
[1] = test system: Agonist, p53; design: method as in PubChem Bioassay AID 651631; details: ref PubChem Bioassay AID 651631; cited from earlier work
[2] = test system: Agonist, Histone H2A.x; design: method as in PubChem Bioassay AID 1224845; details: ref PubChem Bioassay AID 1224845; cited from earlier work
[3] = test system: Activators, heat shock response; design: method as in PubChem Bioassay AID 743210; details: ref PubChem Bioassay AID 743210; cited from earlier work
[4] = test system: ADMET, Cytochrome P450 3A4; design: method as in PubChem Bioassay AID 884; details: ref PubChem Bioassay AID 884; cited from earlier work
[5] = test system: Cytotoxicity, Agonist, constitutive androstane receptor (CAR); design: method as in PubChem Bioassay AID 1224836; details: ref PubChem Bioassay AID 1224836; cited from earlier work
[6] = test system: Antagonist, retinoic acid receptor (RAR); design: method as in PubChem Bioassay AID 1159555; details: ref PubChem Bioassay AID 1159555; cited from earlier work
[7] = test system: Anticancer, Leukemia; design: method as in PubChem Bioassay AID 328; details: ref PubChem Bioassay AID 328; cited from earlier work
[8] = test system: Antagonist, thyroid receptor (TR); design: method as in PubChem Bioassay AID 743065; details: ref PubChem Bioassay AID 743065; cited from earlier work
[9] = test system: Anticancer, Leukemia; design: method as in PubChem Bioassay AID 1053195; details: ref PubChem Bioassay AID 1053195; cited from earlier work
[10] = test system: Cytotoxicity, Agonist, p53; design: method as in PubChem Bioassay AID 651633; details: ref PubChem Bioassay AID 651633; cited from earlier work
[11] = test system: Anti-Inflammatory model; design: method as in PubChem Bioassay AID 489033; details: ref PubChem Bioassay AID 489033; cited from earlier work
[12] = test system: Cytotoxicity, Antagonist, androgen receptor (AR); design: method as in PubChem Bioassay AID 743041; details: ref PubChem Bioassay AID 743041; cited from earlier work
[13] = test system: Antagonist, peroxisome proliferator-activated receptor delta (PPARd); design: method as in PubChem Bioassay AID 743215; details: ref PubChem Bioassay AID 743215; cited from earlier work
[14] = test system: Angiogenesis model; design: method as in PubChem Bioassay AID 1117337; details: ref PubChem Bioassay AID 1117337; cited from earlier work
[15] = test system: Agonist, thyroid stimulating hormone receptor (TSHR); design: method as in PubChem Bioassay AID 1224895; details: ref PubChem Bioassay AID 1224895; cited from earlier work
[16] = test system: Antagonist, peroxisome proliferator-activated receptor gamma (PPARg); design: method as in PubChem Bioassay AID 743191; details: ref PubChem Bioassay AID 743191; cited from earlier work
[17] = test system: Cytotoxicity, Agonist, hypoxia; design: method as in PubChem Bioassay AID 1224844; details: ref PubChem Bioassay AID 1224844; cited from earlier work
[18] = test system: Staphylococcus aureus ATCC 25923; assay: Antibacterial microdilution assay; format: cell-based; details: ATCC25923, read-out: S. aureus Mean ± SD (percentage of inhibition of microbial growth)
Method: (§1) Antibacterial susceptibility was performed using the modified microdilution method for bacteria, against Gram-positive (Staphylococcus aureus ATCC 25923 and Bacillus cereus ATCC 11778) and Gram-negative recognized pathogens (Escherichia coli ATCC 11775, Enterohemorrhagic E. coli ATCC 43895-EHEC, Pseudomonas aeruginosa ATCC 10145 and Salmonella choleraesuis subs. choleraesuis sorotype Typhi BM/Panama-TY2).
(§2) The experiments were performed in 96 well microplates. The extracts and isolated substance solubilized in DMSO (Vetec^TM) at 50 mg/mL were diluted in Mueller Hinton Broth (MHB, Difco) at a concentration of 500 µg/mL. The bacterial isolates, criopreserved at −80 °C were grown in Tryptic Soy Agar (TSA, Acumedia®) plates, at 37 °C for 18–24 h. The inoculum was adjusted in saline solution in a spectrophotometer at 625 nm, to a concentration of 1–5 × 10^8 CFU/mL and then diluted in MHB to 1–5 × 10^5 CFU/mL.
(§3) Volumes of 100 μL of the inoculum were added to wells containing 100 μL of the extracts at […], in triplicate (one well intended for extract control), resulting in a final concentration of 250 μg/mL. Chloramphenicol at 50 μg/mL and 0.5% DMSO were used as positive and negative controls, respectively. Evaluation of microbial growth was carried out by adding the inoculum to a well containing only MHB. Sterility of the culture medium was also confirmed by incubation in the assay plate. Assays were performed in triplicate. The microplates were incubated at 37 °C for 24 h. As an indicator of microbial growth, 20 μL of 2,3,5-triphenyltetrazolium chloride (TTC, Sigma-Aldrich, St. Louis, MO, USA) at 5 mg/mLwere added to each well. The plates were incubated at 37 °C for 3 h and then the TTC was solubilized with 100 μL of sodium lauryl sulfate solution in isopropanol 7 μg/mL and measured in a microplate reader at 485 nm. The result was expressed as the percentage of inhibition compared with the microbial growth control, and was considered positive for antibacterial activity for those extracts with an inhibition higher than 50%.

[19] = test system: Escherichia coli ATCC 11775; assay: Antibacterial microdilution assay; format: cell-based; details: ATCC11775, read-out: E. coli Mean ± SD (percentage of inhibition of microbial growth)
Method: as §1, §2, §3

[20] = test system: Pseudomonas aeruginosa ATCC 10145; assay: Antibacterial microdilution assay; format: cell-based
Method: as §1, §2, §3

[21] = test system: Bacillus cereus ATCC 11778; assay: Antibacterial microdilution assay; format: cell-based; details: ATCC11778, read-out: B. cereus Mean ± SD (percentage of inhibition of microbial growth)
Method: as §1, §2, §3

COc1cc([C@@H]2c3cc4c(cc3[C@H](O)[C@H]3COC(=O)[C@H]23)OCO4)cc(OC)c1OC [Podophyllotoxin, podophyllotoxin]
Exper. Activity [1]: Inactive | Exper. Activity [2]: Inactive | Exper. Activity [3]: Inactive | Exper. Activity [4]: Active | Exper. Activity [5]: Inactive | Exper. Activity [6]: Active | Exper. Activity [7]: Active | Exper. Activity [8]: Active | Exper. Activity [9]: Inactive | Exper. Activity [10]: Inactive | Exper. Activity [11]: Inactive | Exper. Activity [12]: Inactive | Exper. Activity [13]: Inactive | Exper. Activity [14]: Active | Exper. Activity [15]: Inactive | Exper. Activity [16]: Inactive | Exper. Activity [17]: Inactive | inhibition at 250 µg/mL [18]: 53.3 ± 8.8% | inhibition at 250 µg/mL [19]: 51.6 ± 9.08% | P. aeruginosa Mean ± SD (percentage of inhibition of microbial growth) ([20]; 250 µg/mL): No antibacterial activity | inhibition at 250 µg/mL ([20]; Pseudomonas aeruginosa, ATCC10145, read-out: P. aeruginosa Mean ± SD (percentage of inhibition of microbial growth)): 30.2 ± 9.39% | inhibition at 250 µg/mL [21]: 0%
